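Method: 48-hour compound exposure of cells in 96-well plates, five concentrations, linear interpolation of endpoints. The concentration for 50% growth inhibition is given as GI50.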 Calls of active or inactive are those of the source. Cut-off read from the data, not from the text of the source: active = GI50 up to about 1.1 µM and inactive = higher.
How the values were obtained:
Test in all cases: NCI anticancer screen, dose series, 48 h
786-0 = system: 786-0
A498 = system: A498
ACHN = system: ACHN
BT-549 = system: BT-549
CAKI-1 = system: CAKI-1
CCRF-CEM = system: CCRF-CEM
COLO 205 = system: COLO 205
DU-145 = system: DU-145
EKVX = system: EKVX
HCC 2998 = system: HCC 2998
HCT-116 = system: HCT-116
HCT-15 = system: HCT-15
HL-60 = system: HL-60
HOP-62 = system: HOP-62
HOP-92 = system: HOP-92
HT-29 = system: HT-29
Hs-578T = system: Hs-578T
IGROV-1 = system: IGROV-1
K562 = system: K562
KM12 = system: KM12
LOX IMVI = system: LOX IMVI
M14 = system: M14
MCF7 = system: MCF7
MDA-MB-231 = system: MDA-MB-231
MDA-MB-435 = system: MDA-MB-435
MOLT-4 = system: MOLT-4
NCI-H226 = system: NCI-H226
NCI-H23 = system: NCI-H23
NCI-H460 = system: NCI-H460
NCI/ADR-RES = system: NCI/ADR-RES
OVCAR-4 = system: OVCAR-4
OVCAR-8 = system: OVCAR-8
PC-3 = system: PC-3
RPMI-8226 = system: RPMI-8226
RXF 393 = system: RXF 393
SF-268 = system: SF-268
SF-295 = system: SF-295
SF-539 = system: SF-539
SK-MEL-28 = system: SK-MEL-28
SK-MEL-2 = system: SK-MEL-2
SK-MEL-5 = system: SK-MEL-5
SK-OV-3 = system: SK-OV-3
SNB-19 = system: SNB-19
SNB-75 = system: SNB-75
SR = system: SR
SW-620 = system: SW-620
T47D = system: T47D
TK-10 = system: TK-10
U-251 = system: U-251
UACC-257 = system: UACC-257
UACC-62 = system: UACC-62
UO-31 = system: UO-31
A549 = system: A549
NCI-H522 = system: NCI-H522
OVCAR-3 = system: OVCAR-3
OVCAR-5 = system: OVCAR-5
SN12C = system: SN12C
Malme-3M = system: Malme-3M

Structure (SMILES): CC(=O)Nc1ccc(-c2nc3ccccc3s2)cc1
- GI50 (786-0): 24 µM (inactive)
- GI50 (A498): 13.4 µM (inactive)
- GI50 (ACHN): 32.4 µM (inactive)
- GI50 (BT-549): > 10 µM (inactive)
- GI50 (CAKI-1): 22.8 µM (inactive)
- GI50 (CCRF-CEM): 64.1 µM (inactive)
- GI50 (COLO 205): 58.9 µM (inactive)
- GI50 (DU-145): 4.9 µM (inactive)
- GI50 (EKVX): 85.1 µM (inactive)
- GI50 (HCC 2998): 73.8 µM (inactive)
- GI50 (HCT-116): 86.7 µM (inactive)
- GI50 (HCT-15): 81.5 µM
- GI50 (HL-60): 81.7 µM (inactive)
- GI50 (HOP-62): 20.9 µM (inactive)
- GI50 (HOP-92): 55.5 µM (inactive)
- GI50 (HT-29): 73.1 µM (inactive)
- GI50 (Hs-578T): 40.3 µM (inactive)
- GI50 (IGROV-1): 47.6 µM (inactive)
- GI50 (K562): 1.96 µM (inactive)
- GI50 (KM12): 35.3 µM (inactive)
- GI50 (LOX IMVI): 36.9 µM (inactive)
- GI50 (M14): 63.1 µM (inactive)
- GI50 (MCF7): 67.5 µM (inactive)
- GI50 (MDA-MB-231): 26.8 µM (inactive)
- GI50 (MDA-MB-435): 97.5 µM (inactive)
- GI50 (MOLT-4): 20.2 µM (inactive)
- GI50 (NCI-H226): 44.8 µM (inactive)
- GI50 (NCI-H23): 52.1 µM (inactive)
- GI50 (NCI-H460): 36.1 µM (inactive)
- GI50 (NCI/ADR-RES): 28.7 µM (inactive)
- GI50 (OVCAR-4): 29.4 µM (inactive)
- GI50 (OVCAR-8): 35.4 µM (inactive)
- GI50 (PC-3): 64.7 µM (inactive)
- GI50 (RPMI-8226): > 100 µM (inactive)
- GI50 (RXF 393): 23.6 µM (inactive)
- GI50 (SF-268): 51.3 µM (inactive)
- GI50 (SF-295): 29.6 µM (inactive)
- GI50 (SF-539): 26.2 µM (inactive)
- GI50 (SK-MEL-28): 71.9 µM (inactive)
- GI50 (SK-MEL-2): 57.4 µM (inactive)
- GI50 (SK-MEL-5): > 100 µM (inactive)
- GI50 (SK-OV-3): 21.2 µM (inactive)
- GI50 (SNB-19): 33.4 µM (inactive)
- GI50 (SNB-75): 30.8 µM (inactive)
- GI50 (SR): 45.6 µM (inactive)
- GI50 (SW-620): 53.6 µM (inactive)
- GI50 (T47D): 31.1 µM (inactive)
- GI50 (TK-10): 57.8 µM (inactive)
- GI50 (U-251): 27.5 µM (inactive)
- GI50 (UACC-257): > 100 µM (inactive)
- GI50 (UACC-62): 66.7 µM (inactive)
- GI50 (UO-31): 45.5 µM (inactive)

Structure (SMILES): COc1ccc(C2SCC(=O)N2c2ccc(-n3c(-c4ccccc4)nc4ccccc4c3=O)cc2)cc1 (stereo not given)
- GI50 (786-0): > 100 µM (inactive)
- GI50 (A498): > 100 µM (inactive)
- GI50 (A549): > 100 µM (inactive)
- GI50 (ACHN): > 100 µM (inactive)
- GI50 (BT-549): > 100 µM (inactive)
- GI50 (CAKI-1): > 100 µM (inactive)
- GI50 (CCRF-CEM): > 100 µM (inactive)
- GI50 (COLO 205): > 100 µM (inactive)
- GI50 (DU-145): > 100 µM (inactive)
- GI50 (EKVX): > 100 µM (inactive)
- GI50 (HCC 2998): 60.3 µM (inactive)
- GI50 (HCT-116): > 100 µM (inactive)
- GI50 (HCT-15): 48.5 µM
- GI50 (HL-60): > 100 µM (inactive)
- GI50 (HOP-62): > 100 µM (inactive)
- GI50 (HOP-92): 46.7 µM (inactive)
- GI50 (HT-29): > 100 µM (inactive)
- GI50 (Hs-578T): > 10 µM (inactive)
- GI50 (IGROV-1): > 100 µM (inactive)
- GI50 (K562): > 100 µM (inactive)
- GI50 (KM12): 90.8 µM (inactive)
- GI50 (LOX IMVI): > 100 µM (inactive)
- GI50 (M14): > 100 µM (inactive)
- GI50 (MCF7): 98.4 µM (inactive)
- GI50 (MDA-MB-231): > 100 µM (inactive)
- GI50 (MDA-MB-435): > 100 µM (inactive)
- GI50 (MOLT-4): 24.6 µM (inactive)
- GI50 (NCI-H226): > 100 µM (inactive)
- GI50 (NCI-H23): > 100 µM (inactive)
- GI50 (NCI-H460): > 100 µM (inactive)
- GI50 (NCI-H522): 36.4 µM (inactive)
- GI50 (NCI/ADR-RES): 8.89 µM (inactive)
- GI50 (OVCAR-3): > 100 µM (inactive)
- GI50 (OVCAR-4): > 100 µM (inactive)
- GI50 (OVCAR-5): > 100 µM (inactive)
- GI50 (OVCAR-8): > 100 µM (inactive)
- GI50 (PC-3): 42.1 µM (inactive)
- GI50 (RPMI-8226): > 100 µM (inactive)
- GI50 (SF-268): > 100 µM (inactive)
- GI50 (SF-295): > 100 µM (inactive)
- GI50 (SF-539): > 100 µM (inactive)
- GI50 (SK-MEL-28): > 100 µM (inactive)
- GI50 (SK-MEL-2): 6.95 µM (inactive)
- GI50 (SK-MEL-5): > 100 µM (inactive)
- GI50 (SK-OV-3): 73.3 µM (inactive)
- GI50 (SN12C): > 100 µM (inactive)
- GI50 (SNB-19): > 100 µM (inactive)
- GI50 (SNB-75): 15.8 µM (inactive)
- GI50 (SR): 45 µM (inactive)
- GI50 (SW-620): > 100 µM (inactive)
- GI50 (T47D): 21.6 µM (inactive)
- GI50 (TK-10): > 100 µM (inactive)
- GI50 (U-251): > 100 µM (inactive)
- GI50 (UACC-257): > 100 µM (inactive)
- GI50 (UACC-62): 17.8 µM (inactive)
- GI50 (UO-31): 25.3 µM (inactive)

Structure (SMILES): COC(=O)C1CC2(C)C=CC1N(C(=O)OCc1ccccc1)C2 (stereo not given)
- GI50 (786-0): > 100 µM (inactive)
- GI50 (A498): > 100 µM (inactive)
- GI50 (A549): 88.5 µM (inactive)
- GI50 (ACHN): > 100 µM (inactive)
- GI50 (BT-549): 54.1 µM (inactive)
- GI50 (CAKI-1): > 100 µM (inactive)
- GI50 (CCRF-CEM): 69 µM (inactive)
- GI50 (COLO 205): > 100 µM (inactive)
- GI50 (DU-145): > 100 µM (inactive)
- GI50 (EKVX): 38.2 µM (inactive)
- GI50 (HCC 2998): > 100 µM (inactive)
- GI50 (HCT-116): 40.8 µM (inactive)
- GI50 (HCT-15): 94 µM
- GI50 (HL-60): 24.2 µM (inactive)
- GI50 (HOP-62): > 100 µM (inactive)
- GI50 (HT-29): 46.2 µM (inactive)
- GI50 (Hs-578T): 86.5 µM (inactive)
- GI50 (IGROV-1): > 100 µM (inactive)
- GI50 (K562): 49.7 µM (inactive)
- GI50 (KM12): 52.1 µM (inactive)
- GI50 (LOX IMVI): > 100 µM (inactive)
- GI50 (M14): 63.8 µM (inactive)
- GI50 (MCF7): 52.7 µM (inactive)
- GI50 (MDA-MB-231): > 100 µM (inactive)
- GI50 (MDA-MB-435): 79.6 µM (inactive)
- GI50 (MOLT-4): 31.6 µM (inactive)
- GI50 (Malme-3M): > 100 µM (inactive)
- GI50 (NCI-H226): > 100 µM (inactive)
- GI50 (NCI-H23): 59.3 µM (inactive)
- GI50 (NCI-H460): > 100 µM (inactive)
- GI50 (NCI-H522): 30.6 µM (inactive)
- GI50 (NCI/ADR-RES): 41.3 µM (inactive)
- GI50 (OVCAR-3): 55.8 µM (inactive)
- GI50 (OVCAR-4): 40 µM (inactive)
- GI50 (OVCAR-5): > 100 µM (inactive)
- GI50 (OVCAR-8): > 100 µM (inactive)
- GI50 (PC-3): 87.7 µM (inactive)
- GI50 (RPMI-8226): 48 µM (inactive)
- GI50 (RXF 393): 41.9 µM (inactive)
- GI50 (SF-268): > 100 µM (inactive)
- GI50 (SF-295): 42.4 µM (inactive)
- GI50 (SF-539): > 100 µM (inactive)
- GI50 (SK-MEL-28): > 100 µM (inactive)
- GI50 (SK-MEL-2): > 100 µM (inactive)
- GI50 (SK-MEL-5): 34.8 µM (inactive)
- GI50 (SK-OV-3): 27.7 µM (inactive)
- GI50 (SN12C): > 100 µM (inactive)
- GI50 (SNB-19): > 100 µM (inactive)
- GI50 (SNB-75): 28.5 µM (inactive)
- GI50 (SR): 37.6 µM (inactive)
- GI50 (SW-620): > 100 µM (inactive)
- GI50 (T47D): 40 µM (inactive)
- GI50 (TK-10): > 100 µM (inactive)
- GI50 (U-251): 58.1 µM (inactive)
- GI50 (UACC-257): 65.3 µM (inactive)
- GI50 (UACC-62): 51.5 µM (inactive)
- GI50 (UO-31): 69.5 µM (inactive)
